From patent US9187424B1, “Aryl dihydropyridinones and piperidinone MGAT2 inhibitors” (Bristol-Myers Squibb Company, priority 2011, dated 2015)

Biological target: Human MGAT-2 (Homo sapiens (Human), UniProt Q3SYC2)
Assay: MGAT LCMS Assay (human MGAT-2);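 further: diolein product quantified by LC/MS with positive APCI, expressed as peak area ratio versus an internal standard, and this ratio used to derive IC50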
Assay type: biochemical
Conditions: human MGAT-2 membranes expressed in Sf9 cells; 2-oleoylglycerol and oleoyl-Coenzyme A; read-out: h-MGAT2 IC50 (nM) LCMS Assay

Human MGAT-2, sequence (Q3SYC2 whole entry): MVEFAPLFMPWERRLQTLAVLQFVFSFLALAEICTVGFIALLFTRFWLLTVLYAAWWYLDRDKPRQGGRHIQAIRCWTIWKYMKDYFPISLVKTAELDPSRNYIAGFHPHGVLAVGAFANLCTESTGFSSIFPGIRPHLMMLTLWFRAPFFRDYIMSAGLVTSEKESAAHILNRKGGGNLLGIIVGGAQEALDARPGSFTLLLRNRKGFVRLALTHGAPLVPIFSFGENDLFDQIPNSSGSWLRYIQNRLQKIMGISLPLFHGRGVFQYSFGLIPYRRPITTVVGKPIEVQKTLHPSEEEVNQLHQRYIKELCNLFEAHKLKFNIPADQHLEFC

SMILES	IC50
COc1ccc(Cn2cc(C3(C(F)(F)F)CC(c4ccc(C)cc4)=C(c4nn[nH]n4)C(=O)N3)cn2)cc1 (stereo not shown) [Example 182]	2050 nM
Cc1ccc(C2=C(C#N)C(=O)NC(c3ccc(OCCCCCC(F)(F)F)cc3)(C(F)(F)F)C2)cc1 (stereo not shown) [Example 184]	76 nM
Cc1ccc(C2=C(NC(=O)c3cc(-c4ccccc4Cl)no3)C(=O)NC(c3ccc(OCCCC(F)(F)F)cc3)(C(F)(F)F)C2)cc1 (stereo not shown) [Example 185]	121 nM
Cc1ccc(C2=C(n3cnnc3C)C(=O)NC(c3ccc(OCCCC(F)(F)F)cc3)(C(F)(F)F)C2)cc1 (stereo not shown) [Example 186]	229 nM
COc1cc(C(=O)NC2=C(c3ccc(C)cc3)CC(c3ccc(OCCCC(F)(F)F)cc3)(C(F)(F)F)NC2=O)on1 (stereo not shown) [Example 187]	4 nM
COc1ccc(NC(=O)C2=C(c3ccc(C)cc3)CC(C)(C(=O)NCC(C)C)NC2=O)cc1 (stereo not shown) [Example 188]	1520 nM
COc1ccc(NC(=O)C2=C(c3ccc(C)cc3)CC(C)(C(=O)NCc3ccccc3)NC2=O)cc1 (stereo not shown) [Example 189]	1160 nM
Cc1ccc(C2=C(NC(=O)c3cc(-c4cccc(F)c4)no3)C(=O)NC(c3ccc(OCCCC(F)(F)F)cc3)(C(F)(F)F)C2)cc1 (stereo not shown) [Example 190]	155 nM
CCCCCCC(=O)CNC(=O)C1(C)CC(c2ccc(C)cc2)=C(NC(=O)c2ccc(OC)cc2)C(=O)N1 (stereo not shown) [Example 191]	797 nM
Cc1ccc(C2=C(NC(=O)n3ncnn3)C(=O)NC(c3ccc(OCCCC(F)(F)F)cc3)(C(F)(F)F)C2)cc1 (stereo not shown) [Example 192]	433 nM
COc1ccc(C2=C(c3nn[nH]n3)C(=O)NC(c3ccc(OCCCC(F)(F)F)cc3)(C(F)(F)F)C2)cc1 (stereo not shown) [Example 193]	46 nM
CCCCCC#CC1(C(F)(F)F)CC(c2ccc(C)cc2)=C(c2cn[nH]n2)C(=O)N1 (stereo not shown) [Example 194]	6 nM
CCCCCCCC#CC1(C(F)(F)F)CC(c2ccc(C)cc2)=C(c2cn[nH]n2)C(=O)N1 (stereo not shown) [Example 195]	33 nM
CCCCCCCC#CC1(C(F)(F)F)CC(c2ccc(C)cc2)=C(c2cn[nH]n2)C(=O)N1 (stereo not shown) [Example 196]	826 nM
Cc1ccc(C2=C(c3cn[nH]n3)C(=O)NC(C#CC3CC3)(C(F)(F)F)C2)cc1 (stereo not shown) [Example 197]	178 nM
Cc1ccc(C2=C(c3cn[nH]n3)C(=O)NC(C#CCCc3ccccc3)(C(F)(F)F)C2)cc1 (stereo not shown) [Example 198]	16 nM

SMILES	IC50
Cc1ccc(C2=C(c3cn[nH]n3)C(=O)NC(C#CCCC(C)C)(C(F)(F)F)C2)cc1 (stereo not shown) [Example 199]	16 nM
Cc1ccc(C2=C(NC(=O)c3ccc(OC(F)(F)F)cc3)C(=O)NC(c3cnn(CCCCCC(F)(F)F)c3)(C(F)(F)F)C2)cc1 (stereo not shown) [Example 200]	37 nM
Cc1ccc(C2=C(NC(=O)c3ccc(OC(F)F)cc3)C(=O)NC(c3cnn(CCCCCC(F)(F)F)c3)(C(F)(F)F)C2)cc1 (stereo not shown) [Example 201]	24 nM
COCc1ccc(C2=C(c3nn[nH]n3)C(=O)NC(c3ccc(OCCCC(F)(F)F)cc3)(C(F)(F)F)C2)cc1 (stereo not shown) [Example 202]	89 nM
CCOCc1ccc(C2=C(c3nn[nH]n3)C(=O)NC(c3ccc(OCCCC(F)(F)F)cc3)(C(F)(F)F)C2)cc1F (stereo not shown) [Example 203]	59 nM
O=C1NC(c2ccc(OCCCC(F)(F)F)cc2)(C(F)(F)F)CC(c2ccc(OC(F)F)cc2)=C1c1nn[nH]n1 (stereo not shown) [Example 205]	13 nM
O=C1NC(c2ccc(OCCCC(F)(F)F)cc2)(C(F)(F)F)CC(c2ccc3ccccc3c2)=C1c1nn[nH]n1 (stereo not shown) [Example 207]	11 nM
CCOc1ccc(C2=C(c3nn[nH]n3)C(=O)NC(c3ccc(OCCCC(F)(F)F)cc3)(C(F)(F)F)C2)cc1 (stereo not shown) [Example 208]	30 nM
O=C1NC(c2ccc(OCCCC(F)(F)F)cc2)(C(F)(F)F)CC(c2ccc3c(c2)OCCO3)=C1c1nn[nH]n1 (stereo not shown) [Example 209]	37 nM
O=C1NC(c2ccc(OCCCC(F)(F)F)cc2)(C(F)(F)F)CC(c2ccc3c(c2)CCCC3)=C1c1nn[nH]n1 (stereo not shown) [Example 210]	2 nM
O=C1NC(c2ccc(OCCCC(F)(F)F)cc2)(C(F)(F)F)CC(c2ccc3c(c2)OCO3)=C1c1nn[nH]n1 (stereo not shown) [Example 211]	97 nM
COc1ccc(C2=C(c3nn[nH]n3)C(=O)NC(c3ccc(OCCCC(F)(F)F)cc3)(C(F)(F)F)C2)c2c1CCC2 (stereo not shown) [Example 212]	416 nM
Cc1ccc(C2=C(c3nn[nH]n3)C(=O)NC(c3ccc(OCCCC(F)(F)F)cc3)(C(F)F)C2)cc1 (stereo not shown) [Example 213]	1100 nM
COc1ccc(C(=O)NC2=C(c3ccc(C)cc3)CC(c3ccc(OCCCC(F)(F)F)cc3)NC2=O)cc1 (stereo not shown) [Example 214]	12 nM
COOSNc1ccc(C2=C(C#N)C(=O)NC(c3ccc(OCCCC(F)(F)F)cc3)(C(F)(F)F)C2)cc1 (stereo not shown) [Example 225]	889 nM

The next lines start with the values.

IC50	SMILES
11 nM	COc1ccc(C2=C(C#N)C(=O)NC(c3ccc(OCCCC(F)(F)F)cc3)(C(F)(F)F)C2)cc1C (stereo not shown) [Example 215]
440 nM	COc1ccc(C2=C(C#N)C(=O)NC(c3ccc(OCCCC(F)(F)F)cc3)(C(F)(F)F)C2)cc1OC (stereo not shown) [Example 216]
118 nM	Cc1ccc(C2=C(C#N)C(=O)NC(c3ccc(OCCCC(F)(F)F)cc3)(C(F)(F)F)C2)cc1C (stereo not shown) [Example 217]
166 nM	COc1ccc(C2=C(C#N)C(=O)NC(c3ccc(OCCCC(F)(F)F)cc3)(C(F)(F)F)C2)cc1F (stereo not shown) [Example 218]
172 nM	Cc1ccc(C2=C(C#N)C(=O)NC(c3ccc(OCCCC(F)(F)F)cc3)(C(F)(F)F)C2)cc1F (stereo not shown) [Example 219]
13 nM	N#CC1=C(c2ccc(Cl)c(F)c2)CC(c2ccc(OCCCC(F)(F)F)cc2)(C(F)(F)F)NC1=O (stereo not shown) [Example 220]
152 nM	Cc1cc(C2=C(C#N)C(=O)NC(c3ccc(OCCCC(F)(F)F)cc3)(C(F)(F)F)C2)ccc1Cl (stereo not shown) [Example 221]
733 nM	N#CC1=C(c2ccc(Cl)c(Cl)c2)CC(c2ccc(OCCCC(F)(F)F)cc2)(C(F)(F)F)NC1=O (stereo not shown) [Example 222]
112 nM	COc1ccc(C2=C(C#N)C(=O)NC(c3ccc(OCCCC(F)(F)F)cc3)(C(F)(F)F)C2)cc1Cl (stereo not shown) [Example 223]
206 nM	CCOc1ccc(C2=C(C#N)C(=O)NC(c3ccc(OCCCC(F)(F)F)cc3)(C(F)(F)F)C2)cc1Cl (stereo not shown) [Example 226]
63 nM	Cc1ccc(C2=C(C#N)C(=O)NC(c3cnn(CCCCC(F)(F)F)c3)(C(F)(F)F)C2)cc1 (stereo not shown) [Example 227]
7 nM	COc1ccc(C(=O)NC2=C(c3ccc(C)cc3)CC(c3cnn(CCCCCC(F)(F)F)c3)(C(F)(F)F)NC2=O)cc1 (stereo not shown) [Example 228]
25 nM	COc1ccc(C(=O)NC2=C(c3ccc(C)cc3)CC(c3cnn(CCCCC(F)(F)F)c3)(C(F)(F)F)NC2=O)cc1 (stereo not shown) [Example 229]
1530 nM	CCCCCn1cc(C2(C(F)(F)F)CC(c3ccc(C)cc3)=C(C#N)C(=O)N2)cn1 (stereo not shown) [Example 230]
34 nM	Cc1ccc(C2=C(NC(=O)c3ccn(C)n3)C(=O)NC(c3ccc(OCCCC(F)(F)F)cc3)(C(F)(F)F)C2)cc1 (stereo not shown) [Example 231]
6 nM	COc1ccc(C(=O)NC2=C(c3ccc(C)cc3)CC(c3ccc(OCCCC(F)(F)F)cc3)(C(F)(F)F)NC2=O)nn1 (stereo not shown) [Example 232]
639 nM	Cc1ccc(C2=C(c3nn[nH]n3)C(=O)NC(c3ccc(Br)cc3)(C(F)(F)F)C2)cc1 (stereo not shown) [Example 233]
40 nM	O=C1NC(c2ccc(OCCCC(F)(F)F)cc2)(C(F)(F)F)CC(c2ccc(Br)cc2)=C1c1nn[nH]n1 (stereo not shown) [Example 234]

IC50	SMILES
22 nM	O=C1NC(c2ccc(OCCCC(F)(F)F)cc2)(C(F)(F)F)CC(c2ccc(C3CC3)cc2)=C1c1nn[nH]n1 (stereo not shown) [Example 235]
489 nM	O=C1NC(c2ccc(OCCCC(F)(F)F)cc2)(C(F)(F)F)CC(c2ccc(-n3cccn3)cc2)=C1c1nn[nH]n1 (stereo not shown) [Example 236]
130 nM	O=C1NC(c2ccc(OCCCC(F)(F)F)cc2)(C(F)(F)F)CC(c2ccc3c(c2)CCO3)=C1c1nn[nH]n1 (stereo not shown) [Example 237]
7 nM	CN(C)c1ccc(C2=C(c3nn[nH]n3)C(=O)NC(c3ccc(OCCCC(F)(F)F)cc3)(C(F)(F)F)C2)cc1 (stereo not shown) [Example 238]
15 nM	Cc1ccc(C2=C(NC(=O)CS(C)(=O)=O)C(=O)NC(c3ccc(OCCCC(F)(F)F)cc3)(C(F)(F)F)C2)cc1 (stereo not shown) [Example 239]
7 nM	COc1ccc(C2=C(c3nn[nH]n3)C(=O)NC(c3ccc(OCC(F)(F)F)cc3)(C(F)(F)F)C2)cc1 (stereo not shown) [Example 240]
44 nM	O=C1NC(c2ccc(OCCC(F)(F)F)cc2)(C(F)(F)F)CC(c2ccc(OC(F)(F)F)cc2)=C1c1nn[nH]n1 (stereo not shown) [Example 242]
14 nM	O=C1NC(c2ccc(OCCCC(F)(F)F)cc2)(C(F)(F)F)CC(c2ccc(OC(F)(F)F)cc2)=C1c1nn[nH]n1 (stereo not shown) [Example 243]
61 nM	COc1ccc(C2=C(c3nn[nH]n3)C(=O)NC(c3ccc(OCCCC(F)(F)F)cc3)(C(F)(F)F)C2)cc1 (stereo not shown) [Example 244]
46 nM	O=C1NC(c2ccc(OCCCC(F)(F)F)cc2)(C(F)(F)F)CC(c2ccc(OC(F)F)cc2)=C1c1nn[nH]n1 (stereo not shown) [Example 245]
36 nM	Cc1ccc(C2=C(NC(=O)c3cn(C)nn3)C(=O)NC(c3ccc(OCCCC(F)(F)F)cc3)(C(F)(F)F)C2)cc1 (stereo not shown) [Example 246]
51 nM	COc1ccc(C2=C(c3nn[nH]n3)C(=O)NC(c3ccc(OCCCCCC(F)(F)F)cc3)(C(F)(F)F)C2)cc1 (stereo not shown) [Example 247]
8 nM	O=C1NC(c2ccc(OCCCCCC(F)(F)F)cc2)(C(F)(F)F)CC(c2ccc(OCC(F)F)cc2)=C1c1nn[nH]n1 (stereo not shown) [Example 248]
185 nM	Cc1ccc(C2=C(NC(=O)c3ccccc3F)C(=O)NC(c3ccc(OCCCC(F)(F)F)cc3)(C(F)(F)F)C2)cc1 (stereo not shown) [Example 249]
243 nM	CC(=O)C(=O)NC1=C(c2ccc(C)cc2)CC(c2ccc(OCCCC(F)(F)F)cc2)(C(F)(F)F)NC1=O (stereo not shown) [Example 250]
3 nM	CS(=O)(=O)CC(=O)NC1=C(c2ccc(OCC(F)F)cc2)CC(c2ccc(OCCCC(F)(F)F)cc2)(C(F)(F)F)NC1=O (stereo not shown) [Example 251]
7 nM	COc1ccc(C2=C(NC(=O)CS(C)(=O)=O)C(=O)NC(c3ccc(OCCCC(F)(F)F)cc3)(C(F)(F)F)C2)cc1 (stereo not shown) [Example 252]
411 nM	Cc1ccc(C2=C(NC(=O)[C@@H](C)O)C(=O)NC(c3ccc(OCCCC(F)(F)F)cc3)(C(F)(F)F)C2)cc1 (stereo partly shown) [Example 253]
